Earlier results, collected in patent US6955904B2, “Gene coding for quinone oxidoreductase of kluyveromyces marxianus and protein expressed therefrom” (Korea Institute of Science and Technology, priority 2001, dated 2005).

Legend:
[1] = molecular target: T1, Arabidopsis thaliana quinone oxidoreductases (Arabidopsis thaliana, UniProt Q9LK88); settings: Sparla et al., FEBS Letters 1999
T1 sequence (Q9LK88 1-196): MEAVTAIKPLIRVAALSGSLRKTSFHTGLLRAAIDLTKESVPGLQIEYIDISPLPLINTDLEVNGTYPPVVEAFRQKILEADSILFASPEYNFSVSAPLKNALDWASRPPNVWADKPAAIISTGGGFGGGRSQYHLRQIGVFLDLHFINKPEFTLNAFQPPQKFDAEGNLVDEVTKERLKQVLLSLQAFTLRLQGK

[2] = molecular target: human quinone oxidoreductase (Homo sapiens, UniProt P15559); settings: Siegel et al., Mol. Pharmacol. 1997
human quinone oxidoreductase, sequence (P15559 whole entry): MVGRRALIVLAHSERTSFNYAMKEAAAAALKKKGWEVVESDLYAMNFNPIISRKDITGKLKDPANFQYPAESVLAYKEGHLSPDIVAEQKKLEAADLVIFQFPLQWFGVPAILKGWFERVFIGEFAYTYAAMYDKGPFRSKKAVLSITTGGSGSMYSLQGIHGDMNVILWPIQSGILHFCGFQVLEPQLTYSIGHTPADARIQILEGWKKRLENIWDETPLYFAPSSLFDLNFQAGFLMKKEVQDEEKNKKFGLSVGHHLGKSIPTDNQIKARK

| Compound | rate constant for the reaction [1] | rate constant for the reaction [2] |
| --- | --- | --- |
| CC1=C(C)C(=O)C(C)=C(C)C1=O [duroquinone] | 3.2×10^7 M^−1m^−1 | – |
| CC1=C(C)C(=O)C(CC[C@](C)(O)CCC[C@H](C)CCC[C@H](C)CCCC(C)C)=C(C)C1=O [α-tocopherol quinone] | – | 1.5×10^7 M^−1m^−1 |
